The values that follow come from patent US20180273564A1, “CARBON MONOXIDE RELEASING MOLECULES” (AUCKLAND UNISERVICES LIMITED, priority 2015, published 2018).

Where “and” joins values, the source holds several entries; their conditions need not be identical. Equal values may be shown once. Entries after “also recorded” stand apart in the source; their conditions may differ.

A short description of series [1]: Solubility in water.
For series [2], the system named is cancer cell lines (HCT116, NCI-H460, SiHa). Nature of the series: In vitro anticancer activity, statements over all cell lines tested. The settings on record: 72 h compound exposure. How it is done:
(§1) HCT116 (colon cancer cells) and NCI-H460 (large cell lung carcinoma) cells were supplied by ATCC, while SiHa cells (cervical cancer) were supplied by Dr. David Cowan, Ontario Cancer Institute, Canada. Cells were maintained in αMEM (Life Technologies) with 5% FCS (fetal calf serum from Moregate Biotech) at 37° C. in a humidified incubator with 5% CO2. Cells were seeded at the appropriate density and allowed to settle for 24 hours, before the compounds (in 0.5% DMSO at the highest concentration) were added at 3-fold serial dilutions. After 72 h compound exposure, the cells were fixed with 10% TCA (trichloroacetic acid from Merck Millipore) for 1 h at 4° C., then washed before addition of 50 μl of 0.4% sulforhodamine B solution (Sigma Aldrich) for 30 min at room temperature in the dark. After washing with 1% acetic acid, the aminoxanthene dye was solubilised with 100 μl/well unbuffered Tris base (10 mM; Serva) on an orbital shaker for at least 30 min in the dark. The optical density was measured on a BioTek EL808 microplate reader at an absorbance of 490 and 450 nm (reference wavelength) and was used to determine the percentage of cell-growth inhibition. IC50 values were calculated with SigmaPlot12.5 using a three-parameter logistic sigmoidal dose-response curve between the calculated growth inhibition and the compound concentration.

The subject of series [3] is NCI-H460 (large cell lung carcinoma) cells. The series can be described thus: In vitro anticancer activity, sulforhodamine B assay. The class given is cell-based. The settings on record: NCI-H460, 72 h compound exposure, mean of 3 independent experiments. How it is done:
as §1
(In SRB staining, fixed cells bind dye roughly in proportion to their protein.)

Series [4] relates to HCT116 (colon cancer cells). The description is as above. It counts as cell-based. The following applies: HCT116, 72 h compound exposure, mean of 3 independent experiments. How it is done: as §1
Series [5] concerns SiHa cells (cervical cancer). The description is as above. It counts as cell-based. The following applies: 72 h compound exposure, mean of 3 independent experiments. How it is done:
as §1

On to `O=C(Nc1cc[n+](Cc2ccccc2)cc1)c1ccccn1.[C-]#[O+].[C-]#[O+].[C-]#[O+].[Cl][Ru-]([Cl])[Cl]` [Compound 1, [HL][Ru(CO)3Cl3]], for which, in series [1], the Solubility in water is 1.45 mM. For the same molecule, the “cytotoxicity to cancer cell lines” value in series [2] is “most active compound in all cancer cell lines tested; also recorded: moderately cytotoxic”. Also, the concentration for half-maximal inhibition (IC50) turned out to be 73 µM in series [3], 24 µM in series [4] and 26 µM in series [5].
The matching figures for `CC[N+](CC)(CC)CC.[C-]#[O+].[C-]#[O+].[C-]#[O+].[Cl-].[Cl-].[Cl-].[Ru+2]` [Compound 2, [Et4N][Ru(CO)3Cl3]]: 6.78 mM, “non-cytotoxic in the investigated concentration range; also recorded: not active against any of the cancer cell lines”, greater than 1600 µM, greater than 1600 µM and greater than 1600 µM.
For `Cl.O=C(Nc1cc[n+](Cc2ccccc2)cc1)c1ccccn1` [[HL]Cl, 1-Benzyl-4-(picolinamido)pyridinium chloride], the solubility in series [1] (water) is 12.3 mM. In addition, the IC50 was 54 µM in series [3] (Homo sapiens); 20 µM in series [4] (Homo sapiens, HCT-116); 30 µM in series [5] (Homo sapiens).
For the molecule `O=C(N=c1ccn(Cc2ccccc2)cc1)c1ccccn1.[C-]#[O+].[C-]#[O+].[C-]#[O+].[C-]#[O+].[C-]#[O+].[C-]#[O+].[Cl][Ru+].[Cl][Ru-]([Cl])[Cl]` [pH-CORM-1, [Ru(CO)3Cl(L)][Ru(CO)3Cl3]], in series [1], the Solubility in water came out at 1.56 mM. Moreover, the “cytotoxicity to cancer cell lines” value in series [2] is listed as “moderately cytotoxic”. Besides, the half-inhibitory concentration (IC50) in series [3] is 164 µM; in series [4], ≤ 119 µM and 119 µM; in series [5], 148 µM.

In general, IC50 refers to the concentration that inhibits the measured activity by half. The low end stands for inhibition by little substance, the high end for a need for much substance. In general, solubility refers to the dissolved amount per volume that the medium holds. The low end stands for little dissolved substance, the high end for much dissolved substance.
